Reference: US20050060764A1, “Mouse model for bone metabolism” (priority 2003, published 2005)
Strand notation (5' to 3'): a small letter for the sugar, then the base; units joined by * are phosphorothioate-linked, units joined directly phosphodiester-linked; [ ] holds rarer units or linkages, { } end groups; capitals alone tell only the bases. e = 2'-O-(2-methoxyethyl) (MOE); [5mC] = 5-methylcytosine; d = 2'-deoxy (DNA)

Each substance was assayed on rat RANKL mRNA (assay: Antisense inhibition of rat RANKL mRNA levels in UMR-106 cells, quantitative real-time PCR (Table 3)). Conditions: averages from three experiments.
Assay type: cell-based
Parameters: concentration or dose not given beside the values
Procedure: Cells were seeded onto 24-well plates (Falcon-353047) at a density of […] for use in antisense oligonucleotide transfection.
Cells are treated and data are obtained in triplicate. […] Cells were harvested 16-24 hours after oligonucleotide treatment.
PCR reagents were obtained from Invitrogen Corporation, (Carlsbad, Calif.).
Probes and primers to rat RANKL were designed to hybridize to a rat RANKL sequence, using published sequence information (GenBank accession number NM_057149.1, incorporated herein as SEQ ID NO:18). For rat RANKL the PCR primers were: • forward primer: […] (SEQ ID NO:19) • reverse primer: […] (SEQ ID NO: 20) and the • PCR probe was: FAM-[…]-TAMRA (SEQ ID NO: 21) where FAM is the fluorescent reporter dye and TAMRA is the quencher dye. For rat GAPDH the PCR primers were: • forward primer: […](SEQ ID NO:22) • reverse primer: […](SEQ ID NO:23) and the • PCR probe was: 5′ JOE-[…]-TAMRA 3′ (SEQ ID NO: 24) where JOE is the fluorescent reporter dye and TAMRA is the quencher dye.
In accordance with the present invention, a second series of antisense compounds was designed to target different regions of the rat RANKL RNA, using published sequences (GenBank accession number NM_057149.1, incorporated herein as SEQ ID NO: 18, and GenBank accession number AF425669.1, incorporated herein as SEQ ID NO: 200). […] All cytidine residues are 5-methylcytidines. […] If present, “N.D.” indicates “no data”.

% INHIB (inhibition of rat RANKL mRNA levels), at least 40%:
aggttctcagtggcacaggc (eA*eG*eG*eT*eT*d[5mC]*dT*d[5mC]*dA*dG*dT*dG*dG*d[5mC]*dA*e[5mC]*eA*eG*eG*e[5mC]; antisense) [ISIS 286651, 2′-MOE gapmer targeted to rat RANKL]
agtcgagtcctgcaaacctg (eA*eG*eT*e[5mC]*eG*dA*dG*dT*d[5mC]*d[5mC]*dT*dG*d[5mC]*dA*dA*eA*e[5mC]*e[5mC]*eT*eG; antisense) [ISIS 286603, 2′-MOE gapmer targeted to rat RANKL]
agttttccgttgcttaacgt (eA*eG*eT*eT*eT*dT*d[5mC]*d[5mC]*dG*dT*dT*dG*d[5mC]*dT*dT*eA*eA*e[5mC]*eG*eT; antisense) [ISIS 286617, 2′-MOE gapmer targeted to rat RANKL]
atcttggcccagcctcgatc (eA*eT*e[5mC]*eT*eT*dG*dG*d[5mC]*d[5mC]*d[5mC]*dA*dG*d[5mC]*d[5mC]*dT*e[5mC]*eG*eA*eT*e[5mC]; antisense) [ISIS 286614, 2′-MOE gapmer targeted to rat RANKL]
atcttggttaacccttagtt (eA*eT*e[5mC]*eT*eT*dG*dG*dT*dT*dA*dA*d[5mC]*d[5mC]*d[5mC]*dT*eT*eA*eG*eT*eT; antisense) [ISIS 286620, 2′-MOE gapmer targeted to rat RANKL]
caggaacagagcgatgctgc (e[5mC]*eA*eG*eG*eA*dA*d[5mC]*dA*dG*dA*dG*d[5mC]*dG*dA*dT*eG*e[5mC]*eT*eG*e[5mC]; antisense) [ISIS 286590, 2′-MOE gapmer targeted to rat RANKL]
ccattgtgtgatcaccatga (e[5mC]*e[5mC]*eA*eT*eT*dG*dT*dG*dT*dG*dA*dT*d[5mC]*dA*d[5mC]*e[5mC]*eA*eT*eG*eA; antisense) [ISIS 286648, 2′-MOE gapmer targeted to rat RANKL]
cccaaagtacgtcgcatctt (e[5mC]*e[5mC]*e[5mC]*eA*eA*dA*dG*dT*dA*d[5mC]*dG*dT*d[5mC]*dG*d[5mC]*eA*eT*e[5mC]*eT*eT; antisense) [ISIS 286639, 2′-MOE gapmer targeted to rat RANKL]
cgcgtgctgtcttctgatat (e[5mC]*eG*e[5mC]*eG*eT*dG*d[5mC]*dT*dG*dT*d[5mC]*dT*dT*d[5mC]*dT*eG*eA*eT*eA*eT; antisense) [ISIS 286599, 2′-MOE gapmer targeted to rat RANKL]
ctctgcaatgtaacggtacc (e[5mC]*eT*e[5mC]*eT*eG*d[5mC]*dA*dA*dT*dG*dT*dA*dA*d[5mC]*dG*eG*eT*eA*e[5mC]*e[5mC]; antisense) [ISIS 286652, 2′-MOE gapmer targeted to rat RANKL]
ctgcgctcgaaagtacagga (e[5mC]*eT*eG*e[5mC]*eG*d[5mC]*dT*d[5mC]*dG*dA*dA*dA*dG*dT*dA*e[5mC]*eA*eG*eG*eA; antisense) [ISIS 286593, 2′-MOE gapmer targeted to rat RANKL]
cttagtagtcttacacatgt (e[5mC]*eT*eT*eA*eG*dT*dA*dG*dT*d[5mC]*dT*dT*dA*d[5mC]*dA*e[5mC]*eA*eT*eG*eT; antisense) [ISIS 286645, 2′-MOE gapmer targeted to rat RANKL]
cttgggattttgatgctggt (e[5mC]*eT*eT*eG*eG*dG*dA*dT*dT*dT*dT*dG*dA*dT*dG*e[5mC]*eT*eG*eG*eT; antisense) [ISIS 286632, 2′-MOE gapmer targeted to rat RANKL]
ctttgaaagccccaaagtac (e[5mC]*eT*eT*eT*eG*dA*dA*dA*dG*d[5mC]*d[5mC]*d[5mC]*d[5mC]*dA*dA*eA*eG*eT*eA*e[5mC]; antisense) [ISIS 286641, 2′-MOE gapmer targeted to rat RANKL]
gacctgtacagggtcgagag (eG*eA*e[5mC]*e[5mC]*eT*dG*dT*dA*d[5mC]*dA*dG*dG*dG*dT*d[5mC]*eG*eA*eG*eA*eG; antisense) [ISIS 286647, 2′-MOE gapmer targeted to rat RANKL]
gatattctgttaggatccat (eG*eA*eT*eA*eT*dT*d[5mC]*dT*dG*dT*dT*dA*dG*dG*dA*eT*e[5mC]*e[5mC]*eA*eT; antisense) [ISIS 286597, 2′-MOE gapmer targeted to rat RANKL]
gcaaatgttggcgtacaggt (eG*e[5mC]*eA*eA*eA*dT*dG*dT*dT*dG*dG*d[5mC]*dG*dT*dA*e[5mC]*eA*eG*eG*eT; antisense) [ISIS 286627, 2′-MOE gapmer targeted to rat RANKL]
gcatatccatgctaaggctc (eG*e[5mC]*eA*eT*eA*dT*d[5mC]*d[5mC]*dA*dT*dG*d[5mC]*dT*dA*dA*eG*eG*e[5mC]*eT*e[5mC]; antisense) [ISIS 286643, 2′-MOE gapmer targeted to rat RANKL]
gcgatgctgcagaccacctg (antisense eG*e[5mC]*eG*eA*eT*dG*d[5mC]*dT*dG*d[5mC]*dA*dG*dA*d[5mC]*d[5mC]*eA*e[5mC]*e[5mC]*eT*eG) [ISIS 286588, 2′-MOE gapmer targeted to rat RANKL]
gcgcaggtacttgccgtagt (antisense eG*e[5mC]*eG*e[5mC]*eA*dG*dG*dT*dA*d[5mC]*dT*dT*dG*d[5mC]*d[5mC]*eG*eT*eA*eG*eT) [ISIS 286587, 2′-MOE gapmer targeted to rat RANKL]
gcgtacaggtaatagaagcc (eG*e[5mC]*eG*eT*eA*d[5mC]*dA*dG*dG*dT*dA*dA*dT*dA*dG*eA*eA*eG*e[5mC]*e[5mC]; antisense) [ISIS 286625, 2′-MOE gapmer targeted to rat RANKL]
ggtacttgccgtagtctcgg (antisense eG*eG*eT*eA*e[5mC]*dT*dT*dG*d[5mC]*d[5mC]*dG*dT*dA*dG*dT*e[5mC]*eT*e[5mC]*eG*eG) [ISIS 286586, 2′-MOE gapmer targeted to rat RANKL]
ggttaacccttagttttccg (eG*eG*eT*eT*eA*dA*d[5mC]*d[5mC]*d[5mC]*dT*dT*dA*dG*dT*dT*eT*eT*e[5mC]*e[5mC]*eG; antisense) [ISIS 286619, 2′-MOE gapmer targeted to rat RANKL]
gtcttacacatgtatctaca (eG*eT*e[5mC]*eT*eT*dA*d[5mC]*dA*d[5mC]*dA*dT*dG*dT*dA*dT*e[5mC]*eT*eA*e[5mC]*eA; antisense) [ISIS 286644, 2′-MOE gapmer targeted to rat RANKL]
gtggcacaggcccaggagtt (eG*eT*eG*eG*e[5mC]*dA*d[5mC]*dA*dG*dG*d[5mC]*d[5mC]*d[5mC]*dA*dG*eG*eA*eG*eT*eT; antisense) [ISIS 286650, 2′-MOE gapmer targeted to rat RANKL]
tagagatcttggcccagcct (eT*eA*eG*eA*eG*dA*dT*d[5mC]*dT*dT*dG*dG*d[5mC]*d[5mC]*d[5mC]*eA*eG*e[5mC]*e[5mC]*eT; antisense) [ISIS 286615, 2′-MOE gapmer targeted to rat RANKL]
taggatccatctgcgctcga (eT*eA*eG*eG*eA*dT*d[5mC]*d[5mC]*dA*dT*d[5mC]*dT*dG*d[5mC]*dG*e[5mC]*eT*e[5mC]*eG*eA; antisense) [ISIS 286595, 2′-MOE gapmer targeted to rat RANKL]
tcacggagtctcagaattct (eT*e[5mC]*eA*e[5mC]*eG*dG*dA*dG*dT*d[5mC]*dT*d[5mC]*dA*dG*dA*eA*eT*eT*e[5mC]*eT; antisense) [ISIS 286601, 2′-MOE gapmer targeted to rat RANKL]
tcagtctatgtcttgaactt (eT*e[5mC]*eA*eG*eT*d[5mC]*dT*dA*dT*dG*dT*d[5mC]*dT*dT*dG*eA*eA*e[5mC]*eT*eT; antisense) [ISIS 286642, 2′-MOE gapmer targeted to rat RANKL]
tccagagtcgagtcctgcaa (eT*e[5mC]*e[5mC]*eA*eG*dA*dG*dT*d[5mC]*dG*dA*dG*dT*d[5mC]*d[5mC]*eT*eG*e[5mC]*eA*eA; antisense) [ISIS 286604, 2′-MOE gapmer targeted to rat RANKL]
